Data from publication PMC8086025, “A benzopyran with antiarrhythmic activity is an inhibitor of Kir3.1-containing potassium channels” (The Journal of Biological Chemistry, 2021).
Values joined by “and” are separate entries in the source; they are usually repeats but may differ in a detail not shown here. Equal values may be shown once. “Also recorded” adds a separate entry of the source.

Columns and labels:
IKACh = assay: In vivo ECG, carbachol-induced heart rate slowing in anesthetized mice
Protocol: We tested the in vivo effects of BP-G1 versus those of BP-G1(SR) on heart rate in anesthetized adult mice (Fig. 8). ECG was continuously recorded. Panel A is the ECG showing that after carbachol (300 μl of 200 μM) was administered, i.p. (red mark), the heart decelerated, with a visible RR prolongation. About 10 min after carbachol injection, BP-G1 was delivered via the jugular vein (40 μl of 240 μM) (green mark). Within 5 min, there was a reversal of carbachol’s effects on the heart rate. Panel B is a control mouse showing heart rate slowing after carbachol administration (red mark).
Mice were anesthetized (1.5% isofluorane), and a 1.2 French octapolar catheter (Millar) with a drug delivery port was placed transvenously, through the jugular vein, into the right atrium. Continuous ECG was recorded using the Animal Bio Amp and PowerLab 4/35 Advanced Instruments apparatus. […] Saline control at the same volume was performed. Results are averages ±SD.

[1] = system: GABA Cl- channel (GABA-gated); assay: Radioligand binding, [35S]TBPS; set-up: species or system rat; details: 10 µM; listed as Benzopyran-G1 (SR)
5-HT2A = molecular target: T1, 5-HT2A (Homo sapiens, UniProt P28223); assay: Radioligand binding, [3H]ketanserin; details: read-out: % Specific Binding at 10 µM
T1 construct: expressed in transfected cells; host or cells: HEK-293 cells
T1 sequence (P28223 whole entry): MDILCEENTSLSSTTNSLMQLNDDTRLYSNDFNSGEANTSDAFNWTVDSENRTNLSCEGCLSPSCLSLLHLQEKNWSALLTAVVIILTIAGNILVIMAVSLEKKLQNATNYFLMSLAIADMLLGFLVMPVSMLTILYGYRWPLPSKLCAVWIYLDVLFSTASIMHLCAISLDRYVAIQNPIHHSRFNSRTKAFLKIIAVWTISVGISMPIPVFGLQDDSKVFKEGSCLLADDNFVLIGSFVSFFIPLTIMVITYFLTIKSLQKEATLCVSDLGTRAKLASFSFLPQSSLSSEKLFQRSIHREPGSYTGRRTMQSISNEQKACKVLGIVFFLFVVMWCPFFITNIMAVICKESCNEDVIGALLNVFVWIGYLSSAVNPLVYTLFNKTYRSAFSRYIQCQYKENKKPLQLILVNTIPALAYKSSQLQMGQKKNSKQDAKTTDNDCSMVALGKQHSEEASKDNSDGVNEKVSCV

Ca = assay: Radioligand binding; details: listed as Benzopyran-G1 (SR)
Dopamine transporter = molecular target: T2, Dopamine transporter (Homo sapiens, UniProt Q01959); assay: Radioligand binding, [3H]BTCP; details: 10 µM; read-out: % Specific Binding at 10 µM
T2 construct: expressed in transfected cells; host or cells: CHO cells
T2 sequence (Q01959 whole entry): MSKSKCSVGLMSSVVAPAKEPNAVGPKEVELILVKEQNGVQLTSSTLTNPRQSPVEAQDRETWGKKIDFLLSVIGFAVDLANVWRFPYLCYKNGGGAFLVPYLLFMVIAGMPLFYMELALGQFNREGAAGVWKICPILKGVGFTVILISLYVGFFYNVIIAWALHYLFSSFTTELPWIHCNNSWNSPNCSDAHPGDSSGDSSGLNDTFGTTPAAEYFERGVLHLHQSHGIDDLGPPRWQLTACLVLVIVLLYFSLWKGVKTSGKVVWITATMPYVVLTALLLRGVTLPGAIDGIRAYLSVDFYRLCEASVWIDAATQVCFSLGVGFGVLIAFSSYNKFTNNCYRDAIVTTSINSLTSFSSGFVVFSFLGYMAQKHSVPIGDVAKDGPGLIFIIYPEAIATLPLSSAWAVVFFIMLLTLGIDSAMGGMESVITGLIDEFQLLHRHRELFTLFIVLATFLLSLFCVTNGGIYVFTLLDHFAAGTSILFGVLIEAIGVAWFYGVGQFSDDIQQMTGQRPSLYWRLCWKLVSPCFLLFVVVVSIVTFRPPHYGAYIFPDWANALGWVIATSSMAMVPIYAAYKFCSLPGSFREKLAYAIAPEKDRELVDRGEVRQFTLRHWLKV

Neurokinin NK1 = molecular target: T3, Neurokinin NK1 (Homo sapiens, UniProt P25103); assay: Radioligand binding, [125I]-Substance P LYS3, U373MG uppsala; details: read-out: % Specific Binding at 10 µM
T3 construct: endogenous in cells; host or cells: U373MG uppsala
T3 sequence (P25103 whole entry): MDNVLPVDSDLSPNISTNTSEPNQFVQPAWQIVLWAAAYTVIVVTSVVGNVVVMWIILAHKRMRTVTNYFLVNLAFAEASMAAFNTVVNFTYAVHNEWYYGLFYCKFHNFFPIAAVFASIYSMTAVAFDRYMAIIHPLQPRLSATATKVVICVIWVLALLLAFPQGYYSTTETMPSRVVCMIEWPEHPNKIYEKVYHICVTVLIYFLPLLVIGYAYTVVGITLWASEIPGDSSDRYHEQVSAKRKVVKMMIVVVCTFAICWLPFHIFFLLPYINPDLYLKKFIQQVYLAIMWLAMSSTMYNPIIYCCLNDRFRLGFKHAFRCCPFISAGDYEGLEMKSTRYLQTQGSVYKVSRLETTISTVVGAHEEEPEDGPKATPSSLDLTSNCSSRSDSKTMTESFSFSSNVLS

Histamine H2 = molecular target: T4, Histamine H2 (Homo sapiens, UniProt P25021); assay: Radioligand binding, [125I]APT; details: read-out: % Specific Binding at 10 µM
T4 construct: expressed in transfected cells; host or cells: CHO cells
T4 sequence (P25021 whole entry): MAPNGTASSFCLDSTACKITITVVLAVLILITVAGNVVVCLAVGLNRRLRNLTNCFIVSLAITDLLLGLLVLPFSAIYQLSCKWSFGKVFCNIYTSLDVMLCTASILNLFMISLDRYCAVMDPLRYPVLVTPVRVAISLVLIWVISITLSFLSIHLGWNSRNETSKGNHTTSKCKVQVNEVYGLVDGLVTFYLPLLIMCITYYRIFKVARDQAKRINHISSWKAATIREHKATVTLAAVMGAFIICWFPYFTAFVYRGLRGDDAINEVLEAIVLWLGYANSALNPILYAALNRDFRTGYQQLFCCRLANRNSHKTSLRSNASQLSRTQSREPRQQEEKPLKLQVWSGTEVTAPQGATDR

Opioid Kappa = molecular target: T5, Opioid Kappa (Rattus norvegicus, UniProt P34975); assay: Radioligand binding, [3H]U 69593; details: read-out: % Specific Binding at 10 µM
T5 construct: expressed in transfected cells; host or cells: CHO cells
T5 sequence (P34975 whole entry): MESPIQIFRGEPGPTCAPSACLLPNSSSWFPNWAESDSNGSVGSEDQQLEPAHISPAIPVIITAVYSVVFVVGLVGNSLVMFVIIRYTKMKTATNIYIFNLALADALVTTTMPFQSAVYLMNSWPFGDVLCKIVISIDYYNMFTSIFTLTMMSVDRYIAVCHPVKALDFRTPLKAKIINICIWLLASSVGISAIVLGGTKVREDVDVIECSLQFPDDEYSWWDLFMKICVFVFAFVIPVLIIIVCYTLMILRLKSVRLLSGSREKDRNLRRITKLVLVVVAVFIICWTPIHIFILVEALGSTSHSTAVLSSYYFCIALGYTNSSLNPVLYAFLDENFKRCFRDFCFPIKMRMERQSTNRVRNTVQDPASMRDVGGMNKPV

Kir3.1/2 channel = molecular target: T6, Kir3.1/2 channel (UniProt P48542+P48549); assay: TEVC in Xenopus oocytes, Kir3.1/2; assay type: cell-based, human Kir3.1, mouse Kir3.2; set-up: expressed in transfected cells; details: TEVC
T6 sequence (P48549 1-501): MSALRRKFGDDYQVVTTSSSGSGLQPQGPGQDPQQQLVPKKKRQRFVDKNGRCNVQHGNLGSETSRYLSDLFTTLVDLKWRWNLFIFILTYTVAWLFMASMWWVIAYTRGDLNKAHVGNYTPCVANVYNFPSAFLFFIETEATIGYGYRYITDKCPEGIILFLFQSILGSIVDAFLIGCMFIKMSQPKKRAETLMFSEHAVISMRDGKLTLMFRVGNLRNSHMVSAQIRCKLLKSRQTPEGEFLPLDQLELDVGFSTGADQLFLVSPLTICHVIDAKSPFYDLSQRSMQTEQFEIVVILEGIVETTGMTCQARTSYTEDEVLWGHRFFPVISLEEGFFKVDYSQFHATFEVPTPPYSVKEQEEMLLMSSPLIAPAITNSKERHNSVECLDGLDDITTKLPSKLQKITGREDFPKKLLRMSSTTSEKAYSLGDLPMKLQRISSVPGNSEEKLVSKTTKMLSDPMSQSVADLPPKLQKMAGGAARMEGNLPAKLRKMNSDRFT
T6 sequence (P48542 1-425): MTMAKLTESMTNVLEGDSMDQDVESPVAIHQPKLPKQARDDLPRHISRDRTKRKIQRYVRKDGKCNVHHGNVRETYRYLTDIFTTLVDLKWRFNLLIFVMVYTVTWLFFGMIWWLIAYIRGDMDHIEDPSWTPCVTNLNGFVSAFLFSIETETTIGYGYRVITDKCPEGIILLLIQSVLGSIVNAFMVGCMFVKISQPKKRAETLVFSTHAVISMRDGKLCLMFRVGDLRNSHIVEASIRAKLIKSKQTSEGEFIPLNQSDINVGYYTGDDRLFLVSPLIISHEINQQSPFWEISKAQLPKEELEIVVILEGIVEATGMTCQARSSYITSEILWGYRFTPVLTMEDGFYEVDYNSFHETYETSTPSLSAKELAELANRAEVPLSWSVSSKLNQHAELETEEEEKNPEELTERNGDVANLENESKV
Protocol: (§1) X. laevis oocytes were isolated and microinjected as previously described ([6]). Human Kir3.1, mouse Kir3.2, and human Kir3.4 DNA constructs were used for electrophysiology experiments. All cRNA constructs were injected in the amount of 2 ng per oocyte. Injected oocytes were incubated for 2 to 3 days at 18 °C to allow for expression. Whole-cell oocyte currents were then measured using a GeneClamp 500 amplifier (Axon Instruments). Microelectrodes had resistances of 0.5 to 1 megohm using a 3M KCl solution in 1.4% agarose. Oocytes were perfused with a low K^+ (LK) solution ND96 (2 mM KCl, 96 mM NaCl, 1 mM MgCl2, 1.8 mM CaCl2, 5 mM HEPES-Na) to establish a baseline for the recordings. Basal current was measured in a high potassium (HK) solution ND96K (96 mM KCl, 10 mM HEPES-K, 1 mM MgCl2, 1.8 mM CaCl2). To block the current, the oocyte chamber was perfused with 4 mM BaCl2 in ND96K. Only the Barium-sensitive current was used for statistical analysis. To measure the inhibitory activity of the channels, 1 μM BP-G1 in ND96K (HK) was used. Typically, oocytes were held at 0 mV (EK) and the current was monitored constantly using a ramp protocol with a command potential from −80 to +80 mV. Current amplitude was measured at the end of a 1 s sweep. All currents were analyzed when they reached steady state. Error bars in the figures represent SD (N > 4).

[2] = molecular target: T7, Non-steroid nuclear receptors PPARγ (Homo sapiens, UniProt P37231); assay: Radioligand binding, [3H]rosiglitazone; details: read-out: % Specific Binding at 10 µM
T7 construct: purchased; host or cells: E. coli
T7 sequence (P37231 whole entry): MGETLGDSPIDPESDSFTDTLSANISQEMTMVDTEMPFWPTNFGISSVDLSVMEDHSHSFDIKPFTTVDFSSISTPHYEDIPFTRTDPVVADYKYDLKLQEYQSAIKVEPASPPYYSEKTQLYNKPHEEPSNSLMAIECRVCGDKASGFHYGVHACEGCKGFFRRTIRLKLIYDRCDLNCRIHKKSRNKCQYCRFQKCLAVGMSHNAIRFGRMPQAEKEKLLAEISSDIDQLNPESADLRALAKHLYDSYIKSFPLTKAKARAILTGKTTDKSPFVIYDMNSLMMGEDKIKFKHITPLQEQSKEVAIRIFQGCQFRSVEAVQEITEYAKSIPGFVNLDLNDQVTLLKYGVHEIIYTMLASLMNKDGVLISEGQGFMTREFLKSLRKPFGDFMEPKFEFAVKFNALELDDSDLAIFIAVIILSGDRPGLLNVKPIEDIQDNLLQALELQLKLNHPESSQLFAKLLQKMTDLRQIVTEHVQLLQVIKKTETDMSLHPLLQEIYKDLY

Nav = assay: Radioligand binding, rat cerebral cortex
Kir3.1/4 channel = molecular target: T8, Kir3.1/4 channel (Homo sapiens, UniProt P48544+P48549); assay: TEVC in Xenopus oocytes, Kir3.1/4; assay type: cell-based; set-up: expressed in transfected cells; host or cells: Xenopus laevis oocytes (cRNA injection); details: 1 μM, TEVC
T8 sequence (P48549 1-501): T6 sequence (P48549 1-501)
T8 sequence (P48544 1-419): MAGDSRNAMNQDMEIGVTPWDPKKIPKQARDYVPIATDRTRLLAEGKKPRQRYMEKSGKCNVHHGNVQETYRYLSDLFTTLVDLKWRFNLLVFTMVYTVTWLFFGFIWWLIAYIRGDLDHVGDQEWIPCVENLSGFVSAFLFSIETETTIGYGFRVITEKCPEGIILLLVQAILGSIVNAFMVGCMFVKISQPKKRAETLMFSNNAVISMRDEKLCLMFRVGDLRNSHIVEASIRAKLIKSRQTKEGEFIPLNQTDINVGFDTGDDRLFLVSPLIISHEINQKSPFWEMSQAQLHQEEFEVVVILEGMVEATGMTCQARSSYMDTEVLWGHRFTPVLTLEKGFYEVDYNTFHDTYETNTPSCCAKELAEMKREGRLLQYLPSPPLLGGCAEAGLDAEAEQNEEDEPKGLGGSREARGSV
Protocol: as §1

With `Cc1cc(CO)nc2cc3c(cc12)OC(C)(C)[C@@H](O)[C@@H]3NCCc1ccccc1` [BP-G1(SR), (3S,4R)-7-(hydroxymethyl)-2,2,9-trimethyl-4-(2-phenylethylamino)-3,4-dihydropyrano[2,3-g]quinolin-3-ol] the “RR interval 5 min after compound, given about 10 min after carbachol” value (IKACh; 40 μl of 240 μM via jugular vein, anesthetized mice, mean ± SD, N = 3) was 551.6 ± 185 ms, the “heart rate recovery after carbachol” value (IKACh; 40 μl via jugular vein) was “the heart rate did not recover to baseline” and the “% Specific Binding at 10 µM” value [1] was under 50%. The inhibition at 10 µM (5-HT2A) was 46.4%, the “% Specific Binding at 10 µM” value (Ca) was 28.633% and < 50% and the inhibition at 10 µM (Dopamine transporter) was 44.6%. The inhibition at 10 µM (Neurokinin NK1) was 64.2%, the inhibition at 10 µM (Histamine H2) was 83.6% and the inhibition at 10 µM (Opioid Kappa) was 31.3%. The “inhibitory activity on Kir3.1/2 channel” value (Kir3.1/2 channel) was “nominally inhibits; also recorded: unable to effectively inhibit”, the inhibition at 10 µM [2] was 58.3% and the “% Specific Binding at 10 µM” value (Nav) was 68.800%. For the same molecule, the “inhibitory activity on Kir3.1/4 channel” value (Kir3.1/4 channel) was “nominally inhibits; also recorded: unable to effectively inhibit”.
